USRE48253E1, “Methotrexate adjuvants to reduce toxicity and methods for using the same” (Tosk, Inc., priority 2008, dated 2020)

Assays:
[1] = system: Drosophila melanogaster; assay: Fly Study I: protection from MTX-induced lethality; assay type: in vivo
Procedure: In this study, Drosophila melanogaster eggs (50 eggs per vial) were treated with either 0.005 mg TK-112690+0.4 mg MTX (Group 1), 0.01 mg TK-112690+0.4 mg MTX (Group 2), 0.04 mg TK-112690+0.4 mg MTX (Group 3), 0.1 mg TK-112690+0.4 mg MTX (Group 4), 0.4 mg MTX alone (Group 5) or saline blank (Group 6). Two vials of eggs for each dose group were evaluated for viability (viable flies plus pupae).
The efficacy of cancer chemotherapy can be improved if agents are available to reduce the adverse events associated with treatment with cytotoxic agents. To this end, Drosophila melanogaster (commonly know as the fruit fly) is an ideal organism to screen chemical compounds for such side-effect-reducing agents. This study is aimed at finding a dose of a 2,2′-anhydropyrimidine test article that protects against MTX-induced lethality in insects.
Increasing amounts of a 2,2′-anhydropyrimidine test article (typically 0.03 to 0.1 mg) are mixed in an aqueous solution with 0.3 (or 0.4) mg MTX. Four milliliters (mL) of a 2,2′-anhydropyrimidine test article+MTX solutions are added to an appropriate amount of instant fly medium. Fruit fly eggs are added to a 2,2′-anhydropyrimidine test article+MTX treated medium and incubated for up to 31 days. After the 31 day incubation, each assay is scored by the number of mature fly and pupae per vial.
The assays are set up in clear sterile polystyrene narrow diameter vials from Applied Scientific (Hampton, N.H.). Vials are stored in trays and incubated in a darkened 25° C. incubator.
Reagents and materials used are: 50 mg/mL MTX in H2O (pH 8), 20 mg/mL of the 2,2′-anhydropyrimidine test article in H2O, water, sterile polystyrene narrow diameter vials from Applied Scientific, Instant Drosophila Food Medium, Oregon-R Drosophila melanogaster, 25° C. incubator, and 15 mL polystyrene conical tubes
Each assay is performed in a separate fly vial. […] Pre-measured amounts of instant drosophila medium are added to each assay to achieve optimal hydration level. […] Assays are scored by the number of dead pupae or adult flies per vial.

[2] = system: C57BL/6 mice; assay: Mouse Study I: protection from MTX-induced weight loss (LPS/MTX model); assay type: in vivo; conditions: 10 or 30 mg/kg ip 3 hr before and after MTX; LPS+MTX treated mice
Procedure: C57BL/6 mice (10 animals/treatment group) were dosed on Day 1 with LPS (5 μg, i.p.). On Day 2, the animals were treated with 200 mg/kg MTX+10 or 30 mg/kg TK-112690 3 hr before and 3 hr after the MTX treatment. On Day 3, the animals were dosed MTX 100 mg/kg+10 or 30 mg/kg TK±3 hr. On day 8, the Day 8-Day 1 weight was determined and results subject to ANOVA. Group 1=saline alone, Group 2=MTX alone, Group 3=LPS alone, Group 4=MTX+LPS, Group 5=10 mg/kg TK-112690+MTX+LPS or Group 6=30 mg/kg TK-112690+MTX+LPS.
This mouse model is modified from a published procedure (de Koning et al., Int Immunol 18: 941 (2006)). Mice are treated on day one with a single intraperitoneal (ip) dose of lipopolysaccharide (LPS), followed by two consecutive days with 200 and 100 mg/kg ip methotrexate, respectively. Controls include saline alone for days 1, 2, and 3, saline on day 1 plus MTX on days 2 and 3 and LPS on day one with saline injection on days 2 and 3. Experimental groups are given LPS on day one and 10 or 30 mg/kg, TK-112690, a representative 2,2′-anhydropyrimidine test article, ip 3 hours before, and 3 hours after, methotrexate injection on days 2 and 3. Animal weights are measured every day after the first injection with experiment termination five days after the second methotrexate injection (day 8). Weight loss is representative of MTX-induced toxicity, and one aspect of MTX-induced mucositis. […]

Compound | effect of MTX on lethality in the flies ([1]; 0.4 mg MTX alone vs saline) | protection from MTX-induced weight loss (Day 8-Day 1 weight) [2] | protection against MTX-induced lethality in the Fly model ([1]; with MTX 0.4 mg, TK-112690 0.005 to 0.1 mg)
CN(Cc1cnc2nc(N)nc(N)c2n1)c1ccc(C(=O)N[C@@H](CCC(=O)O)C(=O)O)cc1 [MTX, N-[4-[[(2,4-diamino-6-pteridinyl)methyl]methylamino]benzoyl]-L-glutamic acid, reference compound] | highly significant |  | 
Cc1cn2c(nc1=O)O[C@H]1[C@H](O)[C@@H](CO)O[C@H]12 [TK-112690, 2,2′-anhydro-5-methyluridine] |  | highly significant | highly significant
